This is an account of results in patent US20250332078A1, “COSMETIC AND/OR PHARMACEUTICAL COMPOSITIONS CONTAINING CANNABINOIDS” (priority 2020, published 2025).

Data set [1] can be described thus: Color stabilization in o/w emulsion formulation. The data set is classed as physicochemical. As to the method:
Besides colour stability of pure product for end customer colour stability of the formulation is even more important. Discoloration is related for customer to shelf life, reduced efficacy and microbial contamination. Therefore, blends were tested in simple o/w emulsions adding an amino carboxylate and in the alternative a phytic acid salt. The results are shown in […]

The subject of the next data set is IL8. The experiment in a line: IL8 ELISA on HaCaT cells, inflammation triggered with IL1α. The data set is classed as cell-based, human. As to conditions: for IL8 inhibition / inhibition at 2.2 µM / inhibition at 4.6 µM / inhibition at 10 µM: HaCaT; for anti-inflammatory activity (IL8 secretion), in words: Example 2; for inhibition at 2.2 µM / inhibition at 4.6 µM / inhibition at 10 µM: Homo sapiens, read-out: IL8 inhibition. The source says: Inflammation in the skin occurs after UV or chemical exposure, microbial infection or wounding to form a defense against pathogens. However, inflammation in response to UV is associated with degenerative processes in the skin resulting in photoaging, wrinkle and age spot formation. In order to identify the Anti-inflammatory (AI) potential of the test samples the inflammatory mediators interleukin 8 (IL8) were quantified, which initiate and mediate inflammation through recruitment of inflammatory cells from the vasculature. Another object has been identification of the synergistic activity of the test substances. For this purpose, the individual cellular AI potential of bisabolol and synthetic CBD (hereinafter referred to as “SymDStress” obtained from Symrise AG, Holzminden, Germany) with their combination in 100:5, 100:4, 100:3, 100:2 and 100:1 ratios were examined.
Interleukin 8 (IL-8) or CXCL8 is a chemokine produced by macrophages and other cell types such as epithelial cells, airway smooth muscle cells and endothelial cells. In humans, the interleukin-8 protein is encoded by the IL8 gene IL-8 is initially produced as a precursor which undergoes cleavage to create several active IL-8 isoforms. In culture, a 72 amino acid peptide is the major form secreted by all kinds of cells. Interleukin-8 is a key mediator associated with inflammation where it plays a key role in neutrophil recruitment and neutrophil degranulation. As an example, it has been cited as a pro-inflammatory mediator in gingivitis, psoriasis and other diseases. IL8 secretion is increased by various kinds of stress including UV & oxidant stress, which thereby cause the recruitment of inflammatory cells and induces a further increase in oxidant stress mediators, making it a key parameter in localized inflammation.
The ELISA assay uses a solid-phase type of enzyme immunoassay (EIA) to detect the presence of a protein in a liquid sample using antibodies directed against the protein to be measured. Performing an ELISA involves at least one antibody with specificity for that particular protein. The sample with an unknown amount of protein is immobilized on a solid support (usually a polystyrene microtiter plate). After the protein is immobilized, the detection antibody is added, forming a complex with the protein. The detection antibody can be covalently linked to an enzyme or can itself be detected by a secondary antibody that is linked to an enzyme through bio-conjugation. Between each step, the plate is typically washed with a mild detergent solution to remove any proteins or antibodies that are non-specifically bound. After the final wash step, the plate is developed by adding an enzymatic substrate to produce a visible signal, which indicates the quantity the protein to be measured in the sample.
In the present test approach, the IL8 produced and secreted by cells were determined in an Enzyme linked immunosorbance assay (ELISA) from cell supernatants utilizing antibodies detecting the IL8. The assay was performed on HaCaT cells by addition of test substances and their incubation for 6 h (37° C.). Afterwards, inflammation was triggered with IL1α for 2 h or respectively 24 h and IL8 was measured. Therefore, the quantitative sandwich enzyme immunoassay technique was employed. A monoclonal antibody specific for human IL-8 was pre-coated onto a microplate. Standards and samples/supernatants were pipetted into the wells and any IL-8 present was bound by the immobilized antibody. After washing away any unbound substances, an enzyme-linked polyclonal antibody specific for human IL-8 was added to the wells. Following a wash to remove any unbound antibody-enzyme reagent, a substrate solution was added. A color developed in proportion to the amount of IL-8 bound in the initial step. Therefore, the IL8 concentrations for unknown samples are interpolated from the standard curve. […]

Data set [2] can be described thus: ABTS assay, chemical anti-oxidative capacity. As to the method:
The ABTS-Assay is a cell free in vitro test for the evaluation of the chemical AOX capacity. The assay principle bases on the reduction and the involved de-colorization of the green colored cationic radical 2,2′-Azinobis(3-ethylbenzothiazoline 6-sulfonic acid) (ABTS+) by antioxidants. The de-colorization can be measured photometrically at 734 nm. Determination of the anti-oxidative capacity is performed in 96-well microplates from Nunc (Wiesbaden, Germany) and with the microplate reader “Spark” from Tecan (Crailsheim, Germany).
Samples were incubated for 10 min at 30° C. with the 2,2′-Azinobis-(3-ethylbenzothiazoline-6-sulfonate (ABTS) radical cation (Sigma, St. Louis, USA) obtained by chemical conversion of ABTS with potassium persulfate (K2S2O8). As a positive control Trolox was co-tested. The degree of de-colorization was determined photometrically at 734 nm. Results are averaged from 2 independent experiments performed in quadruple technical replicates. The anti-oxidative capacity is expressed in IC50 values (concentration that scavenges 50% of the cationic radical relative to the untreated ABTS solution), which is determined by 4-parameter logistic regression.

The nature of data set [3]: Recrystallization in emulsion (Olympus microscope IX-70, polarized light). Type of data set: physicochemical. The procedure:
To save energy and reduce CO2 there's a trend for cold process emulsions. So it's recommended to use liquid ingredients or well soluble ingredients. […] Recrystallization is evaluated with Olympus microscope IX-70 (60fold) polarized light. As synergist effects in terms of efficacy had been observed, SymDStress is solved in Dragosantol® 100 (Bisabolol). […] The mixture is suitable for cold/cold, hot/cold and cold/cold process emulsions, gels etc.
As synergist effects in terms of efficacy had been observed, SymD Stress is solved in Dragosantol® 100 (Bisabolol). […] Mixture is suitable for cold/cold, hot/cold and cold/cold process emulsions, gels. […] (see FIG. 1). After 6M 5° C. no change in formulation containing Bisabolol. Bisabolol is a very effective solvent for Cannabidiol and helps to prevent recrystallization in target application.

The subject of the next data set is NHDF cells. The data set is described as follows: DCF assay, cellular anti-oxidative capacity (ROS reduction). The data set is classed as cell-based, human. The procedure:
To quantify intracellular radicals in a cell model the dichlorofluorescein (DCF) assay was performed. Therefore, normal dermal human fibroblasts were used as a model for the skin dermis, where ROS would damage cells and the surrounding tissue, which as opposed to keratinocytes accumulate damage over the human life time. […] By intracellular esterases and oxidation, the non-fluorescent H2DCFDA is converted to the highly fluorescent 2′,7′-dichlorofluorescein (DCF). The non-fluorescent fluorescin (2′,7′-dichlorofluorescein diacetate (DCFH-DA) pass the cell membranes. In the cytoplasm, it is cleaved by intracellular esterases and thereby trapped in the cell. The oxidation of DCFH to DCF by intracellularly existing ROS originated from H2O2 added to the cells (reactive oxygen species) results in fluorescence.
Determination of the anti-oxidative capacity is performed in 96-well microplates from Nunc (Wiesbaden, Germany) and with the microplate reader “Spark” from Tecan (Crailsheim, Germany).
Cells are seeded in a black 96 well microplate with transparent bottom and incubated at 37° C. After 24 hours the cells were starved with 0.1% FBS for 24 h. Then the supernatant is aspirated and the test samples are added and incubated for 24 h. As a positive control Trolox is always co-tested. Then the DCF Assay is performed and the fluorescence is measured from bottom of well at EX/EM 485/528 nm. The cellular AOX capacity is expressed in percent as ROS reduction, which can be determined by rule of proportion in combination with the control.

The nature of the next data set: Water solubility. Type of data set: physicochemical.
Data set [4] can be described thus: Colour stability of cannabidiol/bisabolol blend with stabilizers (LICO 690, L*a*b, ΔE). As to conditions: FIG. 2. The data set is classed as physicochemical. The procedure: Colour Stability is an important criterion for customers. Particularly, a product should not change colour during storage. Especially long term stability at room temperature dark stored (RTD) is important, as this simulates storage at a customer. To evaluate effect different antioxidants are tested in common used concentration (see Table 7). Colour is evaluated with LICO 690 (L*a*b-system). Results are compared with ΔE according to the following equation: […]

[5] abbreviates: Table 1, 0.000034 % (0.0011 mM).
The mark [6] stands for this setting: Table 1, 0.000074 % (0.0023 mM).
Setting [7] is: Table 1, 0.000159 % (0.0050 mM).
[8] abbreviates: Table 1, 0.000343 % (0.0110 mM).

For orientation: inhibition means the change of the read-out against control, counted positive when it falls.

Where two headings read alike, the source gives them in different places.

Consider `O=C([O-])CN(CCN(CC(=O)[O-])CC(=O)O)CC(=O)O.[Na+].[Na+]` [Disodium EDTA], for which the “discoloration of formulation, in words” value in data set [1] (after 1M storage at RTL, FIG. 3) is listed as “excellent stabilizing agent against discoloration”.
Regarding `O=C([O-])CC[C@@H](C(=O)[O-])N(CC(=O)[O-])CC(=O)[O-].[Na+].[Na+].[Na+].[Na+]` [Tetrasodium Glutamate Diacetate], the “discoloration in the end-formulation, in words” value in data set [1] (Table 9, FIG. 4) is listed as “reduced discoloration”.
Consider `C=C(C)[C@@H]1CCC(C)=C[C@H]1c1c(O)cc(CCCCC)cc1O` [CBD (natural), cannabidiol, reference compound], for which the IL8 inhibition in the data set on IL8 (setting [5]) is on record as −0.85%; in the data set with IL8 (setting [6]) it was 4.84%; in the data set with IL8 (setting [7]) it was 11.42%; with IL8 (setting [8]), 31.90%.
On to `C=C(C)[C@@H]1CCC(C)=C[C@H]1c1c(O)cc(CCCCC)cc1O` [CBD (synthetic), cannabidiol], for which the “AOX capacity compared to the technical positive control, in words” value in data set [2] is recorded as “higher AOX capacity”. The Anti-oxidative capacity in data set [2] (0.0000160 %) is 23%; in data set [2] (0.0000310 %) it was 28%; in data set [2] (0.000160 %), 84%; in data set [2] (0.000310 %) it was 96%; in data set [2] (0.000470 %), 100%; in data set [2] (0.000630 %) it was 100%. In data set [3] (0.025% CBD, after 1M 5° C.), the recrystallization in formulation entry is “recrystallization can be observed”. The recrystallization in emulsion result in data set [3] (after 1M at Room temperature dark (RTD) storage) is listed as “recrystallization in emulsion is observed”. Moreover, the “anti-inflammatory activity (IL8 secretion), in words” value in the data set on IL8 is reported as “significant anti-inflammatory activity”. The inhibition at 2.2 µM with IL8 was found to be 6%. Also, in the data set on IL8, the inhibition at 4.6 µM is 18%. Further, the inhibition at 10 µM with IL8 is 31%. The IL8 inhibition with IL8 (setting [5]) was −0.84%; in the data set with IL8 (setting [6]), 13.91%; in the data set on IL8 (setting [7]), 25.98%; in the data set with IL8 (setting [8]) it was 34.25%; with IL8 (Table 3, 0.000150 % (0.005 mM)) it was 21%. Also, the ROS reduction is given as 24.01% with NHDF cells (Table 5, 0.0000031 % (0.0001 mMol/l)); 35.43% in the data set on NHDF cells (Table 5, 0.0000063 % (0.0002 mMol/l)); 34.74% with NHDF cells (Table 5, 0.0000126 % (0.0004 mMol/l)); 34.55% with NHDF cells (Table 5, 0.0000157 % (0.0005 mMol/l)); 40.61% in the data set on NHDF cells (Table 5, 0.0000397 % (0.0013 mMol/l)); 48.96% with NHDF cells (Table 5, 0.0000496 % (0.0016 mMol/l)). Moreover, the ROS reduction in the data set on NHDF cells (Table 5, 0.000094 % (0.0003 mMol/l)) is listed as 40.4%; in the data set with NHDF cells (Table 6, 0.000001256 % (0.00004 mMol/l)), 7.20%; in the data set with NHDF cells (Table 6, 0.000001570 % (0.00005 mMol/l)) it was −5.44%. In addition, the “reducing intracellular ROS expression” value in the data set with NHDF cells (summary of Table 5) is “up to 50%”. Besides, in the data set “Water solubility”, the “water solubility, in words” value is given as “low water solubility”.
In the case of Tocopherol, the “discoloration of solution, in words” value in data set [4] is “can prevent solution from discoloration”.
For the compound `CC(C)=CCC[C@](C)(O)[C@@H]1CC=C(C)CC1` [α-bisabolol, alpha-bisabolol], in the data set with IL8, the “anti-inflammatory activity (IL8 secretion), in words” value was “opposite effect”. The inhibition at 2.2 µM in the data set on IL8 (Table 2, 0.0022 mM) is -14%. Besides, in the data set on IL8 (Table 2, 0.0046 mM), the inhibition at 4.6 µM is -3%. The inhibition at 10 µM in the data set with IL8 (Table 2, 0.01000 mM) came to 1%. The IL8 inhibition with IL8 (Table 3, 0.002847 % (0.100 mM)) turned out to be 39%. In addition, the ROS reduction in the data set on NHDF cells (Table 6, 0.00002847 % (0.00100 mMol/l)) is on record as 10.61%.
